Where a name gives a salt, the structure may show the parent alone.
Key:
Jak2 (a.a. 828-1132) = molecular target: T1, Jak2 (a.a. 828-1132) (Homo sapiens, UniProt O60674); experiment: In vitro JAK kinase assay (HTRF, phosphorylation of a biotinylated peptide), JAK2, reported as JAK2/JAK1 ratio; format: biochemical
T1 construct: Jak2 (a.a. 828-1132); His tag (N); made in house; host or cells: insect cells (baculovirus)
Description: (§1) Compounds herein were tested for inhibitory activity of JAK targets according to the following in vitro assay described in Park et al., Analytical Biochemistry 1999, 269, 94-104. The catalytic domains of human JAK1 (a.a. 837-1142), Jak2 (a.a. 828-1132) and Jak3 (a.a. 781-1124) with an N-terminal His tag were expressed using baculovirus in insect cells and purified. The catalytic activity of JAK1, JAK2 or JAK3 was assayed by measuring the phosphorylation of a biotinylated peptide. The phosphorylated peptide was detected by homogenous time resolved fluorescence (HTRF). IC50s of compounds were measured for each kinase in the 40 microL reactions that contain the enzyme, ATP and 500 nM peptide in 50 mM Tris (pH 7.8) buffer with 100 mM NaCl, 5 mM DTT, and 0.1 mg/mL (0.01%) BSA. The ATP concentration in the reactions was 90 μM for Jak1, 30 μM for Jak2 and 3 μM for Jak3 for Km conditions. For the 1 mM IC50 measurements, ATP concentration in the reactions was 1 mM. Reactions were carried out at RT for 1 h and then stopped with 20 μL 45 mM EDTA, 300 nM SA-APC, 6 nM Eu-Py20 in assay buffer (Perkin Elmer, Boston, Mass.). Binding to the Europium labeled antibody took place for 40 min and HTRF signal was measured on a Fusion plate reader (Perkin Elmer, Boston, Mass.).
(§2) Compounds herein were tested for inhibitory activity of JAK1 and JAK2 targets according to the assay of Example A (experiments run at Km or 1 mM as indicated). The symbol “+” indicates an IC50<50 nM; the symbol “++” indicates an IC50≧50 and ≦100 nM; and the symbol “+++” indicates an IC50>100 and ≦500 nM.

[1] = molecular target: T2, human JAK1 (a.a. 837-1142) (Homo sapiens, UniProt P23458); experiment: In vitro JAK kinase assay (HTRF, phosphorylation of a biotinylated peptide), JAK1; format: biochemical
T2 construct: human JAK1 (a.a. 837-1142); His tag (N); made in house; host or cells: insect cells (baculovirus)
T2 sequence (P23458 849-1154): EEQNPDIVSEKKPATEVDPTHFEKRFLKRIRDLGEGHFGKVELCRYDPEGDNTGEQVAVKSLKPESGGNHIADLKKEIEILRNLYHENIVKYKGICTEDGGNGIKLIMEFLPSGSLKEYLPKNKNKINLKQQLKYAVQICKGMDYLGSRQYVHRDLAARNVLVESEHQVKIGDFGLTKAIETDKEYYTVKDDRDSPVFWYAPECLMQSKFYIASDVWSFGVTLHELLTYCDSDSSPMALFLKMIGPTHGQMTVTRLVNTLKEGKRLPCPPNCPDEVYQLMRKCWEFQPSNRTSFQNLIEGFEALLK
Description: as §1, §2

[2] = Assay Conditions Km (ATP 90 μM for Jak1, 30 μM for Jak2)
[3] = Assay Conditions Km (ATP 90 μM for Jak1)

T1 sequence (O60674 828-1132): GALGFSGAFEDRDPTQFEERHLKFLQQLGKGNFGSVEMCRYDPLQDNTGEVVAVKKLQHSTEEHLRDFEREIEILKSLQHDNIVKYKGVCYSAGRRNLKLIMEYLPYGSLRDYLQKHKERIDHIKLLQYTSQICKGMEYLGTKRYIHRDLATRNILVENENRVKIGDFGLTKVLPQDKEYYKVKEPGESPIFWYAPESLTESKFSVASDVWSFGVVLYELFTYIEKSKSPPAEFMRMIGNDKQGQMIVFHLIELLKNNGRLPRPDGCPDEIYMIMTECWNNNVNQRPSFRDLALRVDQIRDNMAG

| Compound | JAK2/JAK1 IC50 ratio (Jak2 (a.a. 828-1132); Assay Conditions 1 mM ATP) | IC50 ([1]; Assay Conditions 1 mM ATP) [nM] | JAK2/JAK1 IC50 ratio (Jak2 (a.a. 828-1132); [2]) | IC50 [1, 3] [nM] |
| --- | --- | --- | --- | --- |
| N#CCC(C1CCN(c2ccc3c(n2)C(F)(F)CC3)C1)n1cc(-c2ncnc3[nH]ccc23)cn1 (single isomer, unassigned) [Example 157, 3-[1-(7,7-difluoro-6,7-dihydro-5H-cyclopenta[b]pyridin-2-yl)pyrrolidin-3-yl]-3-[4-(7H-pyrrolo[2,3-d]pyrimidin-4-yl)-1H-pyrazol-1-yl]propanenitrile bis(trifluoroacetate)] | >5.3 | < 50 | – | – |
| O=S1(=O)CCc2cc(F)c(N3CC[C@H](C(CF)n4cc(-c5ncnc6[nH]ccc56)cn4)C3)nc21 (stereo partly drawn) [Example 86, 4-(1-{2-fluoro-1-[(3S)-1-(5-fluoro-1,1-dioxido-2,3-dihydrothieno[2,3-b]pyridin-6-yl)pyrrolidin-3-yl]ethyl}-1H-pyrazol-4-yl)-7H-pyrrolo[2,3-d]pyrimidine tetrakis(trifluoroacetate)] | 13.0 | < 50 | – | – |
| N#CC[C@@H]([C@H]1CCN(c2ncc(Br)nc2C#N)C1)n1cc(-c2ncnc3[nH]ccc23)cn1 [Example 142, 6-bromo-3-(3S)-3-{(1S)-2-cyano-1-[4-(7H-pyrrolo[2,3-d]pyrimidin-4-yl)-1H-pyrazol-1-yl]ethyl}pyrrolidin-1-yl)pyrazine-2-carbonitrile trifluoroacetate] | 14.2 | < 50 | – | – |
| COc1ncnc(N2CC[C@H]([C@H](CC#N)n3cc(-c4ncnc5[nH]ccc45)cn3)C2)c1C#N [Example 98, 4-((S)-3-((S)-1-(4-(7H-pyrrolo[2,3-d]pyrimidin-4-yl)-1H-pyrazol-1-yl) 2-cyanoethyl)pyrrolidin-1-yl)-6-methoxypyrimidine-5-carbonitrile trifluoroacetate] | >9.1 | < 50 | – | – |
| N#CCC(C1CCN(c2ccc3c(n2)S(=O)(=O)CC3)C1)n1ccc(-c2ncnc3[nH]ccc23)c1 (single isomer, unassigned) [34, enantiomer 2] | 13.8 | < 50 | – | – |
| N#CCC(C1CCN(c2nc3ccccc3nc2O)C1)n1cc(-c2ncnc3[nH]ccc23)cn1 (centres unmarked) [Example 43, 3-[1-(3-hydroxyquinoxalin-2-yl)pyrrolidin-3-yl]-3-[4-(7H-pyrrolo[2,3-d]pyrimidin-4-yl)-1H-pyrazol-1-yl]propanenitrile trifluoroacetate salt] | – | – | 2.5 | < 50 |
| N#CCC(n1cc(-c2ncnc3[nH]ccc23)cn1)C1(F)CCN(c2nc3cccnc3o2)C1 (single isomer, unassigned) [31, Step 4a, enantiomer 1] | 5.6 | 50 to 100 | – | – |
| N#CC[C@@H]([C@H]1CCN(c2ccnc(Cl)c2C#N)C1)n1cc(-c2ncnc3[nH]ccc23)cn1 [Example 123, 2-chloro-4-((3S)-3-{(1S)-2-cyano-1-[4-(7H-pyrrolo[2,3-d]pyrimidin-4-yl)-1H-pyrazol-1-yl]ethyl}pyrrolidin-1-yl)nicotinonitrile trifluoroacetate] | >16.7 | < 50 | – | – |
| COc1ncc(F)c(N2CC[C@H]([C@H](CC#N)n3cc(-c4ncnc5[nH]ccc45)cn3)C2)n1 [Example 104, (S)-3-(4-(7H-pyrrolo[2,3-d]pyrimidin-4-yl)-1H-pyrazol-1-yl)-3-((S)-1-(5-fluoro-2-methoxypyrimidin-4-yl)pyrrolidin-3-yl)propanenitrile trifluoroacetate salt] | 5.9 | < 50 | – | – |
| CSc1cccc(N2CCC(C(CC#N)n3cc(-c4ncnc5[nH]ccc45)cn3)C2)c1C#N (racemic) [Example 40, ±2-(3-{2-cyano-1-[4-(7H-pyrrolo[2,3-d]pyrimidin-4-yl)-1H-pyrazol-1-yl]ethyl}pyrrolidin-1-yl)-6-(methylthio)benzonitrile] | 7.1 | < 50 | – | – |
| N#CC[C@@H]([C@H]1CCN(c2nc3c(cc2F)CCS3)C1)n1cc(-c2ncnc3[nH]ccc23)cn1 [Example 87, (3S)-3-[(3S)-1-(5-fluoro-2,3-dihydrothieno[2,3-b]pyridin-6-yl)pyrrolidin-3-yl]-3-[4-(7H-pyrrolo[2,3-d]pyrimidin-4-yl)-1H-pyrazol-1-yl]propanenitrile bis(trifluoroacetate)] | 8.1 | < 50 | – | – |
| N#CC[C@@H]([C@H]1CCN(c2nc(Cl)ccc2F)C1)n1cc(-c2ncnc3[nH]ccc23)cn1 [Example 94, (3S)-3-[(3S)-1-(6-chloro-3-fluoropyridin-2-yl)pyrrolidin-3-yl]-3-[4-(7H-pyrrolo[2,3-d]pyrimidin-4-yl)-1H-pyrazol-1-yl]propanenitrile trifluoroacetate] | 17.9 | < 50 | – | – |
| N#CC[C@@H]([C@H]1CCN(c2cccc(C(F)F)c2C#N)C1)n1cc(-c2ncnc3[nH]ccc23)cn1 [Example 111, 2-((S)-3-((S)-1-(4-(7H-pyrrolo[2,3-d]pyrimidin-4-yl)-1H-pyrazol-1-yl)-2-cyanoethyl)pyrrolidin-1-yl)-6-(difluoromethyl)benzonitrile trifluoroacetate salt] | 37.6 | < 50 | – | – |
| N#CCC(C1CCN(c2nc3cccnc3o2)C1)n1ccc(-c2ncnc3[nH]ccc23)c1 (single isomer, unassigned) [Example 33, 3-(1-[1,3]oxazolo[5,4-b]pyridin-2-ylpyrrolidin-3-yl)-3-[3-(7H-pyrrolo[2,3-d]pyrimidin-4-yl)-1H-pyrrol-1-yl]propanenitrile phosphate] | 34 | < 50 | – | – |
| N#CC[C@@H]([C@H]1CCN(c2nccnc2C#N)C1)n1cc(-c2ncnc3[nH]ccc23)cn1 [Example 51, 3-((3S)-3-{(1S)-2-cyano-1-[4-(7H-pyrrolo[2,3-d]pyrimidin-4-yl)-1H-pyrazol-1-yl]ethyl}pyrrolidin-1-yl)pyrazine-2-carbonitrile trifluoroacetate] | 6.8 | < 50 | – | – |
| N#CC[C@@H]([C@H]1CCN(c2ncc(Br)s2)C1)n1cc(-c2ncnc3[nH]ccc23)cn1 [Example 47, (3S)-3-[(3S)-1-(5-bromo-1,3-thiazol-2-yl)pyrrolidin-3-yl]-3-[4-(7H-pyrrolo[2,3-d]pyrimidin-4-yl)-1H-pyrazol-1-yl]propanenitrile trifluoroacetate] | 6.9 | < 50 | – | – |
| N#CC[C@@H]([C@H]1CCN(c2c(C#N)cccc2C#N)C1)n1cc(-c2ncnc3[nH]ccc23)cn1 [Example 59, 2-((3S)-3-{(1S)-2-cyano-1-[4-(7H-pyrrolo[2,3-d]pyrimidin-4-yl)-1H-pyrazol-1-yl]ethyl}pyrrolidin-1-yl)isophthalonitrile trifluoroacetate salt] | 6.5 | < 50 | – | – |
| CSc1nccc(N2CCC(C(CC#N)n3cc(-c4ncnc5[nH]ccc45)cn3)C2)n1 (single isomer, unassigned) [Example 23, 3-{1-[2-(methylthio)pyrimidin-4-yl]pyrrolidin-3-yl}-3-[4-(7H-pyrrolo[2,3-d]pyrimidin-4-yl)-1H-pyrazol-1-yl]propanenitrile] | 2.3 | < 50 | – | – |
| N#CCC(C1CCN(c2nccc(Cl)n2)C1)n1cc(-c2ncnc3[nH]ccc23)cn1 (single isomer, unassigned) [Example 4a, 3-[1-(4-chloropyrimidin-2-yl)pyrrolidin-3-yl]-3-[4-(7H-pyrrolo[2,3-d]pyrimidin-4-yl)-1H-pyrazol-1-yl]propanenitrile] | – | – | 8.8 | < 50 |
| Cn1cc(Cl)nc(N2CCC(C(CC#N)n3cc(-c4ncnc5[nH]ccc45)cn3)C2)c1=O (racemic) [Example 36, ±3-[1-(6-chloro-4-methyl-3-oxo-3,4-dihydropyrazin-2-yl)pyrrolidin-3-yl]-3-[4-(7H-pyrrolo[2,3-d]pyrimidin-4-yl)-1H-pyrazol-1-yl]propanenitrile trifluoroacetate] | 6 | 50 to 100 | – | – |
| CCS(=O)(=O)c1ccc(F)c(N2CC[C@H]([C@H](CC#N)n3cc(-c4ncnc5[nH]ccc45)cn3)C2)n1 [Example 93, (3S)-3-{(3S)-1-[6-(ethylsulfonyl)-3-fluoropyridin-2-yl]pyrrolidin-3-yl}-3-[4-(7H-pyrrolo[2,3-d]pyrimidin-4-yl)-1H-pyrazol-1-yl]propanenitrile trifluoroacetate] | 5.3 | < 50 | – | – |
| N#CCC(C1CCN(c2ccc3c(n2)[S+]([O-])CC3)C1)n1ccc(-c2ncnc3[nH]ccc23)c1 (centres unmarked) [Example 35, 3-[1-(1-oxido-2,3-dihydrothieno[2,3-b]pyridin-6-yl)pyrrolidin-3-yl]-3-[3-(7H-pyrrolo[2,3-d]pyrimidin-4-yl)-1H-pyrrol-1-yl]propanenitrile] | 4.2 | < 50 | – | – |

Reference: US8716303B2, “N-(hetero)aryl-pyrrolidine derivatives of pyrazol-4-yl-pyrrolo[2,3-d]pyrimidines and pyrrol-3-yl-pyrrolo[2,3-d]pyrimidines as janus kinase inhibitors” (Incyte Corporation, priority 2009, dated 2014)
